These results are taken from patent US9428439B2, “Hydrobenzamide derivatives as inhibitors of Hsp90” (priority 2006, dated 2016).

“Also recorded” adds a separate entry of the source. Read-outs that look alike come from different tables or passages of the source.

This data set in a line: Solid-state stability of crystalline forms (XRPD). As to conditions: for stability in air: XRPD. The format is physicochemical. From the text: Samples for X-ray powder diffraction (XRPD) data collection were gently ground by marble mortar and loaded into a crystallographic capillary (from Hampton Research, Quartz or Glass Type 10, 0.4 or 0.7 mm diameter). Diffraction patterns were collected at room temperature using CuKα radiation (λ=1.5418 Å) from a Rigaku rotating anode RU3HR, Osmic blue confocal optics, ¼ c goniometer and a Rigaku HTC image plate detector. 2D Images were collected while spinning φ axis with a detector to crystal distance of 250 mm. Data collection was controlled by CrystalClear software and 2D images were converted to 1D plot (2θ vs. Intensity) by Datasqueeze (intensity averaged over the azimuthal angle 0≦χ≦360° for […] 3-30° in 0.02° steps). In house program AstexXRPD was used for manipulation and visualisation of 1D XRPD patterns.

On to `CC(C)c1cc(C(=O)N2Cc3ccc(CN4CCN(C)CC4)cc3C2)c(O)cc1O.Cl` [Form FH3, (2,4-dihydroxy-5-isopropyl-phenyl)-[5-(4-methyl-piperazin-1-ylmethyl)-1,3-dihydro-isoindol-2-yl]-methanone hydrochloride salt], for which the “stability at 40° C. and 75% RH” value was “stable in air and at 40 °C and 75% RH for at least one month”. Further, the stability in air result (listed as FH3, hydrochloride salt) is given as “stable in air”.
As for `CC(C)c1cc(C(=O)N2Cc3ccc(CN4CCN(C)CC4)cc3C2)c(O)cc1O` [Form FB1, (2,4-dihydroxy-5-isopropyl-phenyl)-[5-(4-methyl-piperazin-1-ylmethyl)-1,3-dihydro-isoindol-2-yl]-methanone], the stability in air result (listed as FB1) is “unstable in air and converts to form FB3; also recorded: converted completely to crystal form FB3”.
In the case of `CC(C)c1cc(C(=O)N2Cc3ccc(CN4CCN(C)CC4)cc3C2)c(O)cc1O.Cl` [Form FH5, (2,4-dihydroxy-5-isopropyl-phenyl)-[5-(4-methyl-piperazin-1-ylmethyl)-1,3-dihydro-isoindol-2-yl]-methanone hydrochloride salt], the stability in air entry (listed as FH5, hydrochloride salt) is “unstable and dissolves in moist air”.
Regarding `CC(C)c1cc(C(=O)N2Cc3ccc(CN4CCN(C)CC4)cc3C2)c(O)cc1O` [Form FB4, (2,4-dihydroxy-5-isopropyl-phenyl)-[5-(4-methyl-piperazin-1-ylmethyl)-1,3-dihydro-isoindol-2-yl]-methanone], the “stability of the crystalline form (stable / unstable form)” value (“stability … (stable / unstable form)” for short) was “stable”. Also, for the setting “listed as FB4”, the stability in air entry is listed as “stable in air”.
Consider `CC(C)c1cc(C(=O)N2Cc3ccc(CN4CCN(C)CC4)cc3C2)c(O)cc1O` [Form FB2, (2,4-dihydroxy-5-isopropyl-phenyl)-[5-(4-methyl-piperazin-1-ylmethyl)-1,3-dihydro-isoindol-2-yl]-methanone], for which, where the note is “listed as FB2”, the stability in air entry is “unstable in air and converts to form FB3; also recorded: changed to crystal form FB3”.
With `CC(C)c1cc(C(=O)N2Cc3ccc(CN4CCN(C)CC4)cc3C2)c(O)cc1O.C[C@H](O)C(=O)O` [Form FL1, (2,4-dihydroxy-5-isopropyl-phenyl)-[5-(4-methyl-piperazin-1-ylmethyl)-1,3-dihydro-isoindol-2-yl]-methanone L-lactate salt], the “stability at 40° C. and 75% RH” value was “stable in air and at 40 °C and 75% RH for at least one month”. Moreover, where the note is “listed as FL”, the stability in air result was “stable in air”. Besides, the “stability … (stable / unstable form)” value (listed as FL1) is “stable forms”.
Take `CC(C)c1cc(C(=O)N2Cc3ccc(CN4CCN(C)CC4)cc3C2)c(O)cc1O.Cl` [Form FH2, (2,4-dihydroxy-5-isopropyl-phenyl)-[5-(4-methyl-piperazin-1-ylmethyl)-1,3-dihydro-isoindol-2-yl]-methanone hydrochloride salt]: the stability in air entry (listed as FH2, hydrochloride salt) is recorded as “unstable in air; also recorded: transforms on air into form FH3; also recorded: conversion to form FH3”.
For `CC(C)c1cc(C(=O)N2Cc3ccc(CN4CCN(C)CC4)cc3C2)c(O)cc1O.O=S(=O)(O)O` [Form FS2, (2,4-dihydroxy-5-isopropyl-phenyl)-[5-(4-methyl-piperazin-1-ylmethyl)-1,3-dihydro-isoindol-2-yl]-methanone sulphate salt], under “listed as FS2, sulphate salt”, the “stability at 40° C. and 75% RH” value is listed as “transforms to form FS4”; the stability in air result was “unstable on air and transforms to form FS5”; the “stability … (stable / unstable form)” value is “unstable forms”.
For the molecule `CC(C)c1cc(C(=O)N2Cc3ccc(CN4CCN(C)CC4)cc3C2)c(O)cc1O.C[C@H](O)C(=O)O` [Form FL2, (2,4-dihydroxy-5-isopropyl-phenyl)-[5-(4-methyl-piperazin-1-ylmethyl)-1,3-dihydro-isoindol-2-yl]-methanone L-lactate salt], under “listed as FL2”, the stability in air result was “stable in air” and the “stability … (stable / unstable form)” value is “stable forms”.
